Measured values published in patent US5710018A, “Mammalian influx peptide transporter” (Eli Lilly and Company, priority 1995, dated 1998).
Where a SMILES comes first, the peptide text is derived from it.

Columns and labels:
[1] = molecular target: T1, influx peptide transporter (Homo sapiens, UniProt Q12864); conditions: Clone 9; 50 mM Gly-L-Pro
T1 sequence (Q12864 23-832 K115E/E734D/E739A): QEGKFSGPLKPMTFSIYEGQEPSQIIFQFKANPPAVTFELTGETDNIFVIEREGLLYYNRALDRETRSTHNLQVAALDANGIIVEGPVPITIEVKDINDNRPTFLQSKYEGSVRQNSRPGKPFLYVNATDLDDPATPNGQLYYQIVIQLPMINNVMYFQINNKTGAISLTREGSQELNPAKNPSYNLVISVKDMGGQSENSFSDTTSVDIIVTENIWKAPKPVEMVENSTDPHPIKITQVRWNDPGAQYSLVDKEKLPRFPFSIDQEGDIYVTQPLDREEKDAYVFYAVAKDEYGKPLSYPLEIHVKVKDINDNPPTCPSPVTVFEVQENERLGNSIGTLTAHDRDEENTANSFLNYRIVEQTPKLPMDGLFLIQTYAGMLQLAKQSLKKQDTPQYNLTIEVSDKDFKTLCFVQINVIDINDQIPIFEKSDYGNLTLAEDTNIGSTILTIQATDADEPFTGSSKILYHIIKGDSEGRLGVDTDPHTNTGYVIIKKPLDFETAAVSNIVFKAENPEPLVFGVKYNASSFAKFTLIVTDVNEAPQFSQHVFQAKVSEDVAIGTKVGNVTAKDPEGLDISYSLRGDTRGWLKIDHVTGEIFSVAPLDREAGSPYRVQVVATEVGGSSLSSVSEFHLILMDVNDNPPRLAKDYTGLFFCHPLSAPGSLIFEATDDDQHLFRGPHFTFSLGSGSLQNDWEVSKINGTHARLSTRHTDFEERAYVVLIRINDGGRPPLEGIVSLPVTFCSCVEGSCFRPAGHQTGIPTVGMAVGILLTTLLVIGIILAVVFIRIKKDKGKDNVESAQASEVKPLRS
Method: Chinese hamster ovary cells (CHO-K1, ATCC CCL 61) were transfected with plasmid pPSJ179 using a calcium precipitation protocol described in the Stratagene mammalian transfection kit (Stratagene Catalog #200285). […] The calcium precipitation protocol transfection method was carried out as follows. Subconfluent CHO-K1 cells (100 mm culture dish, 1-day post plating) were incubated for 20 minutes at 37° C. with 20 μg of a calcium-precipitated DNA sample. The DNA sample was either plasmid pPSJ179 or, as control, plasmid pRc/RSV. Subsequently, the cells were grown for 3 days in F12 medium containing 10% fetal bovine serum (Hyclone Laboratories Inc., Logan, Utah 84321). Afterwards, the medium was replaced with growth medium containing the selection agent, G-418 sulfate at 300 μg/ml (Gibco, Grand Island, N.Y.) and cells were grown in a 3% CO2 incubator at 37° C. for 13 days. Colonies which were selected for further study were grown for selected time periods in the selection medium at 37° C. in a 5% CO2 incubator. Transfectants were evaluated for expression of the influx peptide transporter using an enzyme linked immunosorbent assay (ELISA) and monoclonal antibody reactive with the influx peptide transporter.
The transfected CHO-K1 cells (~0.5 to 1×10^5 cells per well) were grown for 3 days in a Costar 24-well plate as described above. […]

control CHO-K1 cells = experiment: [14C]cephalexin uptake by control CHO-K1 cells transfected with plasmid pRc/RSV; assay type: in vitro ADME, Chinese hamster; conditions: Gly-L-Pro coincubation

inhibition of uptake of 1 mM cephalexin [1]: inhibited
Compound: NCC(=O)N1CCC[C@H]1C(=O)O [Gly-L-Pro] (H-Gly-Pro-OH)
inhibition of transport of 1 mM [14C]cephalexin (control CHO-K1 cells): not inhibited
